Biological target: 5'-nucleotidase CD73 (Homo sapiens) (UniProt P21589)
Experiment: Binding affinity to human recombinant CD73 expressed in Sf9 cells assessed as inhibition constant by malachite green based spectrophotometer assay

Chain of 5'-nucleotidase CD73 (Homo sapiens) (P21589 whole entry, looked up): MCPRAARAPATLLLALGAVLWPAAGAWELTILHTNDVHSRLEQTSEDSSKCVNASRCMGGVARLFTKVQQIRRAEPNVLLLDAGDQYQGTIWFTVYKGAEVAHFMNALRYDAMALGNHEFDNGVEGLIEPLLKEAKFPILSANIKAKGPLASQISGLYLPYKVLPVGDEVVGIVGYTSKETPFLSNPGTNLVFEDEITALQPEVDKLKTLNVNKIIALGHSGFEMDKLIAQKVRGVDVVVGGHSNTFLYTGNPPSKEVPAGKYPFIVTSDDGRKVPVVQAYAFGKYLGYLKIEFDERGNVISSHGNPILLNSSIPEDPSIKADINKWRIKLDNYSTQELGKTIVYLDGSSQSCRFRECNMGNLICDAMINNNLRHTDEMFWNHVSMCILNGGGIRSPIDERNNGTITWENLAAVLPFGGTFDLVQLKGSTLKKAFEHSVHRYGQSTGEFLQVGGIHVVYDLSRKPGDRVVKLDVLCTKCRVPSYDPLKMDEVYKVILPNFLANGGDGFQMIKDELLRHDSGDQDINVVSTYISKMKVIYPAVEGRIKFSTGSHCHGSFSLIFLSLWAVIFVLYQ

CCN(CC)c1nc(Cl)nc2c1ncn2[C@@H]1O[C@H](COCP(=O)(O)OP(=O)(O)C(Br)(Br)P(=O)(O)O)[C@@H](O)[C@H]1O
Ki: 97 nM
